{"source": "patent US20250235422A1", "about": "(BiomEdit, Inc., priority 2024, published 2025)", "key": {"[1]": {"target": "T1, AHR (Homo sapiens, UniProt P35869)", "T1 sequence (P35869 11-848)": "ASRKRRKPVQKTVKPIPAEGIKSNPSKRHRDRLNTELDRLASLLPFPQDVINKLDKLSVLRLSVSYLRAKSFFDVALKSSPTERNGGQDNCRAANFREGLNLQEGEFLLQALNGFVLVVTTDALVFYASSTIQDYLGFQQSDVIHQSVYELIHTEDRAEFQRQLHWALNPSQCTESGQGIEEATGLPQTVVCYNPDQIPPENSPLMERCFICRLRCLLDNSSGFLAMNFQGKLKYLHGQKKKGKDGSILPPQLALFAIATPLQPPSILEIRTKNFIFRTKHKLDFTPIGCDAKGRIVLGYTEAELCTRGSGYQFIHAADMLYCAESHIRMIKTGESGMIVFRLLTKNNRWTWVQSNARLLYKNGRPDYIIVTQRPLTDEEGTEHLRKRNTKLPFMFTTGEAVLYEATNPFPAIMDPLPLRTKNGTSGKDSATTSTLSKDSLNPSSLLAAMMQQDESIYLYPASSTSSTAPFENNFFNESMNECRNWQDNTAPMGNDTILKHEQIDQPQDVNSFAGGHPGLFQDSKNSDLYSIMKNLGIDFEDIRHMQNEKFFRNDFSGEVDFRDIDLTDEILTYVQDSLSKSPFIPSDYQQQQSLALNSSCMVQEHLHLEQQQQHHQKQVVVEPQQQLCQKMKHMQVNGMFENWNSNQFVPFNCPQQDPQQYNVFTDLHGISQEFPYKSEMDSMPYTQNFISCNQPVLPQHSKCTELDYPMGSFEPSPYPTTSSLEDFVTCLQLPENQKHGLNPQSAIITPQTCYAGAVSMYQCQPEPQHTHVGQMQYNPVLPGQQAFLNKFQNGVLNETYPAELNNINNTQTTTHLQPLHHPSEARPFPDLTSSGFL", "conditions": "cited from earlier work"}, "[2]": {"test": "Light stability and hydrophobicity observed during development", "type": "physicochemical", "conditions": "light exposure"}, "[3]": {"system": "psoriasis and AD", "conditions": "humans; cited from earlier work"}, "[4]": {"conditions": "AHR ligand activity, Table 1 reproduced from Barroso A et al., 2021"}}, "note": "“Also recorded” adds a separate entry of the source. Read-outs that look alike come from different tables or passages of the source.", "data": [{"smiles": "CCCCC/C=C\\C[C@@H](O)/C=C/C=C\\C/C=C\\CCCC(=O)O", "values": [{"measurement": "Activity", "setting": "[1]; [4]", "result": "Agonist"}]}, {"smiles": "O=C(O)c1cc(O)c2ccccc2c1O", "note": "[1,4-dihydroxy-2-naphthoic acid (DHNA), 1,4-dihydroxy-2-naphthoic acid]", "values": [{"measurement": "Activity", "setting": "[1]; [4]", "result": "Agonist"}]}, {"smiles": "Clc1cc2c(cc1Cl)Oc1cc(Cl)c(Cl)cc1O2", "note": "[2,3,7,8-Tetrachlorodibenzop-dioxin]", "values": [{"measurement": "Activity", "setting": "[1]; [4]", "result": "Agonist"}]}, {"smiles": "COC(=O)c1csc(C(=O)c2c[nH]c3ccccc23)n1", "note": "[2-(19H-indole-39-carbonyl)-thiazole-4-carboxylic acid methyl ester]", "values": [{"measurement": "Activity", "setting": "[1]; [4]", "result": "Agonist"}]}, {"smiles": "c1ccc2c(Cc3[nH]c4ccccc4c3Cc3c[nH]c4ccccc34)c[nH]c2c1", "note": "[2-(Indol-3-ylmethyl)-3,39-diindolylmethane]", "values": [{"measurement": "Activity", "setting": "[1]; [4]", "result": "Agonist"}]}, {"smiles": "c1ccc2c(Cc3c[nH]c4ccccc34)c[nH]c2c1", "note": "[3,3-diindolylmethane (DIM), 3,3-diindolylmethane]", "values": [{"measurement": "Activity", "setting": "[1]; [4]", "result": "Agonist"}]}, {"smiles": "Cc1ccc2cc3c(ccc4ccccc43)c3c2c1CC3", "note": "[3-Methylcholanthrene]", "values": [{"measurement": "Activity", "setting": "[1]; [4]", "result": "Agonist"}]}, {"smiles": "Cc1c[nH]c2ccccc12", "note": "[3-Methylindole (Skatole), 3-Methylindole]", "values": [{"measurement": "Activity", "setting": "[1]; [4]", "result": "Partial"}]}, {"smiles": "COc1ccc(-c2cc(=O)c3ccccc3o2)cc1OC", "note": "[3′4′-Dimethoxyflavone]", "values": [{"measurement": "Activity", "setting": "[1]; [4]", "result": "Partial"}]}, {"smiles": "COc1cc(-c2cc(=O)c3ccccc3o2)ccc1[N+](=O)[O-]", "note": "[3′-methoxy-4′-nitroflavone (MNF), 3′-methoxy-4′-nitroflavone]", "values": [{"measurement": "Activity", "setting": "[1]; [4]", "result": "Antagonist"}]}, {"smiles": "N[C@@H](Cc1c[nH]c2ccc(O)cc12)C(=O)O", "note": "[5-hydroxytryptophan (5HTP), 5-hydroxytryptophan]", "values": [{"measurement": "Activity", "setting": "[1]; [4]", "result": "Agonist"}]}, {"smiles": "O=Cc1c2c(cc3c1=Nc1ccccc1-3)=Nc1ccccc1-2", "note": "[6-Formylindolo [3,2-b] carbazole (FICZ), 6-Formylindolo [3,2-b] carbazole]", "values": [{"measurement": "Activity", "setting": "[1]; [4]", "result": "Agonist"}]}, {"smiles": "Cc1cc(Cl)cc2c1oc1cc(Cl)cc(Cl)c12", "note": "[6-Methyl-1,3,8-trichlorodibenzofuran]", "values": [{"measurement": "Activity", "setting": "[1]; [4]", "result": "Partial"}]}, {"smiles": "CC(C)c1cnn2c(N[C@@H]3CCc4[nH]c5ccccc5c4C3)nc(-c3cncc(F)c3)nc12", "note": "[AHR antagonist 5 (IK-775)]", "values": [{"measurement": "Activity", "setting": "[1]; [4]", "result": "Antagonist"}]}, {"smiles": "O=C(O)[C@H]1O[C@@H](Oc2cc3oc(-c4ccccc4)cc(=O)c3c(O)c2O)[C@H](O)[C@@H](O)[C@@H]1O", "note": "[Baicalin]", "values": [{"measurement": "Activity", "setting": "[1]; [4]", "result": "AntAgonist"}]}, {"smiles": "O=c1cc(-c2ccccc2)oc2ccc3ccccc3c12", "note": "[Beta-naphthoflavone]", "values": [{"measurement": "Activity", "setting": "[1]; [4]", "result": "Agonist"}]}, {"smiles": "C=CC1=C(C)/C(=C/C2=NC(=C\\c3[nH]c(/C=C4\\NC(=O)C(C)=C4C=C)c(C)c3CCC(=O)O)/C(CCC(=O)O)=C2C)NC1=O", "note": "[Biliverdin]", "values": [{"measurement": "Activity", "setting": "[1]; [4]", "result": "Agonist"}]}, {"smiles": "Cc1ccccc1N=Nc1ccc(NC(=O)c2ccnn2C)c(C)c1", "note": "[CH-223191]", "values": [{"measurement": "Activity", "setting": "[1]; [4]", "result": "AntAgonist"}]}, {"smiles": "Nc1c(C(=O)O)c2nc3c(C(=O)O)cccc3oc-2cc1=O", "note": "[Cinnabarinic acid (CA), Cinnabarinic acid]", "values": [{"measurement": "Activity", "setting": "[1]; [4]", "result": "Agonist"}]}, {"smiles": "CC=CC=CC=CC=CC=CC(=O)O", "note": "[DDPA, dodeca-2,4,6,8,10-pentaenoic acid]", "values": [{"measurement": "photostability", "setting": "[2]", "result": "photolabile; also recorded: photodecomposition leads to a loss of potency"}]}, {"smiles": "O=C(O)Cc1ccccc1Nc1c(Cl)cccc1Cl", "note": "[Diclofenac]", "values": [{"measurement": "Activity", "setting": "[1]", "result": "Agonist"}]}, {"smiles": "N#CCc1c[nH]c2ccccc12", "note": "[Indole-3-acetonitrile (IAN), Indole-3-acetonitrile]", "values": [{"measurement": "Activity", "setting": "[1]; [4]", "result": "Agonist"}]}, {"smiles": "O=Cc1c[nH]c2ccccc12", "note": "[Indole-3-aldehyde (I3CA), Indole-3-aldehyde]", "values": [{"measurement": "Activity", "setting": "[1]; [4]", "result": "Agonist"}]}, {"smiles": "OCc1c[nH]c2ccccc12", "note": "[Indole-3-carbinol (I3C), Indole-3-carbinol]", "values": [{"measurement": "Activity", "setting": "[1]; [4]", "result": "Agonist"}]}, {"smiles": "c1ccc2[nH]ccc2c1", "note": "[Indole]", "values": [{"measurement": "Activity", "setting": "[1]", "result": "Agonist"}]}, {"smiles": "c1ccc2c(c1)N=c1cc3c(cc1-2)=Nc1ccccc1-3", "note": "[Indolo [3,2-b]carbazole (ICZ), Indolo [3,2-b]carbazole]", "values": [{"measurement": "Activity", "setting": "[1]; [4]", "result": "Agonist"}]}, {"smiles": "O=S(=O)(O)Oc1c[nH]c2ccccc12", "note": "[Indoxyl-3-sulfate (I3S), Indoxyl-3-sulfate]", "values": [{"measurement": "Activity", "setting": "[1]; [4]", "result": "Agonist"}]}, {"smiles": "Nc1ccccc1C(=O)C[C@H](N)C(=O)O", "note": "[L-Kynurenine (Kyn), L-Kynurenine]", "values": [{"measurement": "Activity", "setting": "[1]; [4]", "result": "Agonist"}]}, {"smiles": "CCCCC[C@H](O)/C=C/C=C\\C=C\\C=C\\[C@@H](O)[C@@H](O)CCCC(=O)O", "note": "[Lipoxin A4]", "values": [{"measurement": "Activity", "setting": "[1]; [4]", "result": "Agonist"}]}, {"smiles": "O=Cc1c(Cc2c[nH]c3ccccc23)[nH]c2ccccc12", "note": "[Malassezin]", "values": [{"measurement": "Activity", "setting": "[1]; [4]", "result": "Agonist"}]}, {"smiles": "COc1cc2c(cc1O)C[C@@H]1NCCc3cc(OC)c(O)c-2c31", "note": "[Norisoboldine]", "values": [{"measurement": "Activity", "setting": "[1]; [4]", "result": "Agonist"}]}, {"smiles": "O=c1c(O)c(-c2ccc(O)c(O)c2)oc2cc(O)cc(O)c12", "note": "[Quercetin]", "values": [{"measurement": "Activity", "setting": "[1]; [4]", "result": "Partial"}]}, {"smiles": "CC(C)n1cnc2c(NCCc3ccc(O)cc3)nc(-c3csc4ccccc34)nc21", "note": "[StemRegenin 1 (SR1), StemRegenin 1]", "values": [{"measurement": "Activity", "setting": "[1]; [4]", "result": "AntAgonist"}]}, {"smiles": "CC1=C(CC(=O)O)c2cc(F)ccc2/C1=C\\c1ccc([S+](C)[O-])cc1", "note": "(stereo not shown) [Sulindac]", "values": [{"measurement": "Activity", "setting": "[1]; [4]", "result": "Agonist"}]}, {"smiles": "CC(C)c1c(O)cc(/C=C/c2ccccc2)cc1O", "note": "[Tapinarof, 3,5-dihydroxy-4-isopropyl-trans-stilbene]", "values": [{"measurement": "effectiveness for treatment of psoriasis and AD", "setting": "[3]", "result": "effective"}, {"measurement": "Activity", "setting": "[1]; [4]", "result": "Agonist"}]}, {"smiles": "NCCc1c[nH]c2ccccc12", "note": "[Tryptamine]", "values": [{"measurement": "Activity", "setting": "[1]; [4]", "result": "Agonist"}]}, {"smiles": "O=C1c2ccccc2-n2c1nc1ccccc1c2=O", "note": "[Tryptanthrin]", "values": [{"measurement": "Activity", "setting": "[1]; [4]", "result": "Agonist"}]}, {"smiles": "FC(F)(F)c1ccc(Nc2nccc(-c3cccc(Cl)c3)n2)cc1", "note": "[VAF347]", "values": [{"measurement": "Activity", "setting": "[1]; [4]", "result": "Agonist"}]}, {"smiles": "O=C(O)c1cc(O)c2cccc(O)c2n1", "note": "[Xanthurenic acid]", "values": [{"measurement": "Activity", "setting": "[1]; [4]", "result": "Agonist"}]}]}
